Experimental data published in patent US9629850B2, “Combination of MEK inhibitors and selective inhibitors of Aurora A kinase” (priority 2011, dated 2017).
Like-named read-outs stand apart in the source and are kept apart here.

How the values were obtained:
A375 [1] = assay: BrdU proliferation assay, A375; conditions: Homo sapiens, A-375, 96 h
Experimental: (§1) A2780, A375, PC-3, and SK-MeI-2 human tumor cell lines were seeded at 2.0×10^3, 1.0×10^3, 4.0×10^3 and 2.0×10^3 cells per well, respectively, in 80 μL of the appropriate cell culture growth media. Plating densities were chosen to ensure optimal linear growth over 120 hours. After 20 hours, 10 μL of each compound was added to the cells in a matrix with dose responses of both agents. […] Each matrix was generated in triplicate with each replicate on a separate plate.
(§2) Cell proliferation of each cell line was measured using the cell proliferation enzyme-linked immunosorbent assay (ELISA), 5-bromo-2-deoxyuridine (BrdU) colorimetric kit according to the manufacturer's instructions (Roche [Mannheim, Germany]). The assay measures cell proliferation by quantifying BrdU incorporation into replicating deoxyribonucleic acid (DNA). Briefly, each well was incubated with 10 μL of BrdU labeling reagent for 2 hours at 37° C. in a humidified cell culture chamber. After aspiration of the labeling media, the plates were wrapped in foil and kept at 4° C. to assay at a future time. The cells were fixed and denatured by adding 100 µL of ethanol to each well and incubated for 30 minutes at room temperature. The ethanol was aspirated and 50 μl of blocking reagent (Roche [Mannheim, Germany]) was added to the cells and incubated for 30 minutes. 100 μL of peroxidase-conjugated anti BrdU antibody ([anti-BrdU-POD]; 1:100 in antibody dilution buffer) was added to the cells. The cells were incubated with the antibody for 120 minutes at room temperature. The cells were then washed 2× with 150 μL of wash buffer per well and 100 μL of tetramethyl benzidine was then added. The cells were incubated for 15 to 30 minutes at room temperature prior to spectrophotometric analysis. A SpectraMax Plus 384 plate reader (Molecular Devices [Sunny Vale Calif., USA]) or WALLAC 1420 Workstation (Perkin Elmer [Turku, Finland]) were used to measure the absorbance of each well at 395 or 405 nm, respectively, depending on the machine used. The A2780 and A375 cell lines were measured using the SpectraMax Plus at 395 nm, while the PC-3 and SK-Mel-2 cell lines were measured using the WALLAC 1420 Workstation at 405 nm. Analysis of the data was performed using GraphPad Prism 5.0.

PC-3 = assay: BrdU proliferation assay, PC-3; conditions: Homo sapiens, PC-3, 96 h
Experimental: as §1, §2

A2780 [2] = assay: BrdU proliferation assay, A2780; conditions: Homo sapiens, A2780, 96 h
Experimental: as §1, §2

SKMEL-2 [3] = assay: BrdU proliferation assay, SKMEL-2; conditions: Homo sapiens, SK-MEL-2, 96 h
Experimental: as §1, §2

A2780 cells = assay: Quantification of sub-diploid cells by flow cytometry; conditions: A2780, 96 hours, single agents: TAK-733 50 nM or 200 nM, MLN8237 20 nM (50 nM MLN8237 sample was the exception), FIG. 2A
Experimental: Sub-diploid cells were gated as those with a lower level of propidium iodide fluorescence than cells with 2N DNA content.
(§3) A2780, A375, PC-3 and SK-MEL-2 cells were seeded at 2×10^4 cells/ml and grown on 6 well cell culture dishes overnight at 37° C. with 5% CO2. […] At the relevant time points cells were harvested with trypsin ethylenediaminetetraacetic acid (EDTA) 1× (Gibco/Invitrogen [Carlsbad, Calif., USA]), washed once with phosphate-buffered saline (PBS), fixed in 70% ethanol and stored at −20° C. for at least 24 hours. The cells were washed once more in PBS, then resuspended in 50 μg/ml propidium iodide (Invitrogen, [Carlsbad, Calif., USA]) and 30 μg/ml ribonuclease (RNAse) A (Sigma [St Louis, Mo., USA]) in PBS and incubated for 30 minutes at room temperature protected from light. Cell cycle distributions were determined by measuring deoxyribonucleic acid (DNA) content using flow cytometry on a FACS Canto II flow cytometer (Becton Dickinson [San Jose, Calif., USA]) and samples were analyzed using [sequence] software (Becton Dickinson [San Jose, Calif., USA]).

PC3 = assay: Cells with greater than 4N DNA by flow cytometry, PC3
Experimental: as §3

A375 [4] = assay: Cells with greater than 4N DNA by flow cytometry, A375
Experimental: as §3

A2780 [5] = assay: Cells with greater than 4N DNA by flow cytometry, A2780
Experimental: as §3

SKMEL-2 [6] = assay: Cells with greater than 4N DNA by flow cytometry, SKMEL-2
Experimental: as §3

[7] = tested on: Panc-1 Human Pancreatic Carcinoma Xenografts; assay: Antitumor activity in female nude mice bearing Panc-1 xenografts; conditions: MLN8237 30 mg/kg QD for 21 days (oral per title; b268 prints SC); Day 63; p<0.001 vs vehicle
Experimental: Experimental Design: Low passage (passage TC08) Panc-1 cells (ATCC, Manassas, Va., USA) were grown in Roswell Park Memorial Institute (RPMI)-1640 (ATCC, Manassas, Va., USA) 10% Fetal Bovine Serum (PAA Laboratories PTY LTD, Morningside, QLD, Australia) and supplied at a concentration of 5.0×10^7 cells/mLl in Dulbecco's phosphate-buffered saline (DPBS) (Invitrogen-Gibco, Grand Island, N.Y., USA). Cells were mixed 1:1 with Matrigel support (BD Biosciences, Bedford, Mass., USA) and 5.0×10^6 Panc-1 cells/animal (0.2 mL injection volume) were implanted SC into the right flank of female Balb/c nude mice.
Tumor growth was monitored twice weekly using calipers and the mean tumor volume was calculated using the formula (0.5×[length×width^2]). […] Tumor size and body weight were measured twice weekly and the study was terminated on Day 63 when tumors in the control group reached approximately 1127.8 mm^3. Tumor volumes and BW of animals in the combination treatment group were monitored up to Day 111.
Antitumor activity was determined by calculating the percent TGI ([mean tumor volume of the control group—mean tumor volume of a treated group]/mean tumor volume of the control group) on Day 63. Treatment started on Day 1 and lasted through Day 21. Maximum percent BWL was evaluated during the treatment period (Day 1-Day 21). […]

[8] = tested on: NCI-H23 Non Small Cell Lung Carcinoma Xenografts; assay: Anti-tumor activity in female nude mice bearing NCI-H23 xenografts; conditions: for TGI: Day 99; for TFS (tumor-free survivors): Day 135, n=8
Experimental: MLN8237 was prepared in 10% hydroxypropyl-beta-cyclodextrin (HP-β-CD) (Sigma, St. Louis, Mo., USA)+1% NaHCO3 (Sigma, St. Louis, Mo., USA) every 5 days and stored at approximately 25° C. in the dark.
5.0×10^6 NCI-H23 cells/animal (0.1 ml injection volume) were implanted SC into the right flank of Balb/c nude mice.
Experimental Design: 7-9 week old female Balb/c nude mice were inoculated subcutaneously in the flank (cell suspension) with 5.0×10^6 NCI-H23 cells. Tumor growth was monitored with vernier calipers. The mean tumor volume was calculated using the formula V=W^2×L/2. When the mean tumor volume (MTV) reached approximately 105 mm^3, the animals were randomized into 8 treatment groups (n=8/group). […] Tumor growth and body weight were measured twice per week. Tumor growth inhibition and body weight change were calculated on Day 99 of treatment.
Antitumor activity was determined by calculating the percent TGI ([mean tumor volume of the control group−mean tumor volume of a treated group]/mean tumor volume of the control group) on Day 99. Treatment started on Day 1 for 21 days. […] The use of Day 99 allows us to evaluate tumor response and statistically compare the ΔAUC for each group over the regrowth period.
Additional endpoints used to evaluate efficacy were: complete and partial tumor response CR and PR), and the number of tumor-free survivors (TFS) at the end of the study.
Statistical Analysis: Statistical analysis was performed with a linear mixed effects regression model. This model takes into account the differences in trends of tumor growth between control and treated samples. Differences among mice were treated as random effects, and a compound symmetry covariance structure was used to model the variability between repeated tumor measurements on each mouse. Treatment comparisons were performed by using the fitted curves from the model to calculate the changes in the areas under the tumor volume-versus-time curves (ΔAUCs). The significance of the ΔAUC was assessed using permutation testing. P-values <0.05 were considered significant.
The change in AUC relative to the control was calculated for both single agent treatment groups as well as the combination group.

[9] = MLN8237 30 mg/kg PO for 21 days, mice of 8

Q: With COc1cc(Nc2ncc3c(n2)-c2ccc(Cl)cc2C(c2c(F)cccc2OC)=NC3)ccc1C(=O)[O-].O.[Na+] [MLN8237] as the compound, how does the IC50 (A375 [1]; read-out: MLN8237 IC50, A375, TAK-733 0.0 nM) read?
A: 59 nM

Q: And the IC50 (A375 [1]; read-out: MLN8237 IC50, A375, TAK-733 0.0001 nM)?
A: 73 nM

Q: What about the IC50 (A375 [1]; read-out: MLN8237 IC50, A375, TAK-733 0.001 nM) of the same compound?
A: 63 nM

Q: And the IC50 (A375 [1]; read-out: MLN8237 IC50, A375, TAK-733 0.01 nM)?
A: 58 nM

Q: What about the IC50 (A375 [1]; read-out: MLN8237 IC50, A375, TAK-733 0.1 nM) of the same compound?
A: 62 nM

Q: What about the IC50 (A375 [1]; read-out: MLN8237 IC50, A375, TAK-733 1 nM) of the same compound?
A: 65 nM

Q: And the IC90 (A375 [1]; read-out: MLN8237 IC90, A375, TAK-733 0.0 nM)?
A: 530 nM

Q: And the IC90 (A375 [1]; read-out: MLN8237 IC90, A375, TAK-733 0.0001 nM)?
A: 554 nM

Q: What about the IC90 (A375 [1]; read-out: MLN8237 IC90, A375, TAK-733 0.001 nM) of the same compound?
A: 408 nM

Q: And the IC90 (A375 [1]; read-out: MLN8237 IC90, A375, TAK-733 0.01 nM)?
A: 882 nM

Q: And the IC90 (A375 [1]; read-out: MLN8237 IC90, A375, TAK-733 0.1 nM)?
A: 325 nM

Q: And the IC90 (A375 [1]; read-out: MLN8237 IC90, A375, TAK-733 1 nM)?
A: > 5000 nM

Q: And the IC50 (PC-3; read-out: MLN8237 IC50, PC-3, TAK-733 0.0 nM)?
A: 134 nM

Q: What about the IC50 (PC-3; read-out: MLN8237 IC50, PC-3, TAK-733 16 nM) of the same compound?
A: 84 nM

Q: And the IC50 (PC-3; read-out: MLN8237 IC50, PC-3, TAK-733 80 nM)?
A: 93 nM

Q: What about the IC50 (PC-3; read-out: MLN8237 IC50, PC-3, TAK-733 400 nM) of the same compound?
A: 100 nM

Q: And the IC50 (PC-3; read-out: MLN8237 IC50, PC-3, TAK-733 2000 nM)?
A: 74 nM

Q: What about the IC90 (PC-3; read-out: MLN8237 IC90, PC-3, TAK-733 0.0 nM) of the same compound?
A: > 5000 nM

Q: What about the IC90 (PC-3; read-out: MLN8237 IC90, PC-3, TAK-733 16 nM) of the same compound?
A: > 5000 nM

Q: What about the IC90 (PC-3; read-out: MLN8237 IC90, PC-3, TAK-733 80 nM) of the same compound?
A: 1060 nM

Q: And the IC90 (PC-3; read-out: MLN8237 IC90, PC-3, TAK-733 400 nM)?
A: 890 nM

Q: And the IC90 (PC-3; read-out: MLN8237 IC90, PC-3, TAK-733 2000 nM)?
A: 569 nM

Q: What about the IC50 (A2780 [2]; read-out: MLN8237 IC50, A2780, TAK-733 0.0 nM) of the same compound?
A: 43 nM

Q: And the IC50 (A2780 [2]; read-out: MLN8237 IC50, A2780, TAK-733 0.64 nM)?
A: 34 nM

Q: And the IC50 (A2780 [2]; read-out: MLN8237 IC50, A2780, TAK-733 3.2 nM)?
A: 29 nM

Q: What about the IC50 (A2780 [2]; read-out: MLN8237 IC50, A2780, TAK-733 16 nM) of the same compound?
A: 19 nM

Q: What about the IC50 (A2780 [2]; read-out: MLN8237 IC50, A2780, TAK-733 80 nM) of the same compound?
A: 11 nM

Q: What about the IC90 (A2780 [2]; read-out: MLN8237 IC90, A2780, TAK-733 0.0 nM) of the same compound?
A: > 5000 nM

Q: What about the IC90 (A2780 [2]; read-out: MLN8237 IC90, A2780, TAK-733 0.64 nM) of the same compound?
A: > 5000 nM

Q: What about the IC90 (A2780 [2]; read-out: MLN8237 IC90, A2780, TAK-733 3.2 nM) of the same compound?
A: 288 nM

Q: And the IC90 (A2780 [2]; read-out: MLN8237 IC90, A2780, TAK-733 16 nM)?
A: 28 nM

Q: What about the IC90 (A2780 [2]; read-out: MLN8237 IC90, A2780, TAK-733 80 nM) of the same compound?
A: 46 nM

Q: What about the IC50 (SKMEL-2 [3]; read-out: MLN8237 IC50, SKMEL-2, TAK-733 0.0 nM) of the same compound?
A: 67 nM

Q: What about the IC50 (SKMEL-2 [3]; read-out: MLN8237 IC50, SKMEL-2, TAK-733 0.01 nM) of the same compound?
A: 66 nM

Q: And the IC50 (SKMEL-2 [3]; read-out: MLN8237 IC50, SKMEL-2, TAK-733 0.1 nM)?
A: 54 nM

Q: And the IC50 (SKMEL-2 [3]; read-out: MLN8237 IC50, SKMEL-2, TAK-733 1 nM)?
A: 48 nM

Q: And the IC50 (SKMEL-2 [3]; read-out: MLN8237 IC50, SKMEL-2, TAK-733 10 nM)?
A: 16 nM

Q: And the IC90 (SKMEL-2 [3]; read-out: MLN8237 IC90, SKMEL-2, TAK-733 0.0 nM)?
A: > 5000 nM

Q: What about the IC90 (SKMEL-2 [3]; read-out: MLN8237 IC90, SKMEL-2, TAK-733 0.01 nM) of the same compound?
A: > 5000 nM

Q: And the IC90 (SKMEL-2 [3]; read-out: MLN8237 IC90, SKMEL-2, TAK-733 0.1 nM)?
A: > 5000 nM

Q: What about the IC90 (SKMEL-2 [3]; read-out: MLN8237 IC90, SKMEL-2, TAK-733 1 nM) of the same compound?
A: > 5000 nM

Q: And the IC90 (SKMEL-2 [3]; read-out: MLN8237 IC90, SKMEL-2, TAK-733 10 nM)?
A: 309 nM

Q: And the “percentage of sub-diploid cells relative to DMSO” value (A2780 cells)?
A: neither TAK-733 nor MLN8237 caused appreciable increases

Q: And the “Percentage of cells with greater than 4N DNA” value (“Percentage of cells” below) (PC3; PC3, 24 Hr, DMSO 10.5)?
A: 21%

Q: What about the “Percentage of cells” value (PC3; PC3, 48 Hr, DMSO 10.7) of the same compound?
A: 30.5%

Q: And the “Percentage of cells” value (A375 [4]; A375, 24 Hr, DMSO 0.9)?
A: 16%

Q: And the “Percentage of cells” value (A375 [4]; A375, 48 Hr, DMSO 1.4)?
A: 18.6%

Q: What about the “Percentage of cells” value (A2780 [5]; A2780, 24 Hr, DMSO 1.7) of the same compound?
A: 9.6%

Q: What about the “Percentage of cells” value (A2780 [5]; A2780, 48 Hr, DMSO 2.2) of the same compound?
A: 13%

Q: What about the “Percentage of cells” value (SKMEL-2 [6]; SKMEL-2, 24 Hr, DMSO 3.1) of the same compound?
A: 14.5%

Q: What about the “Percentage of cells” value (SKMEL-2 [6]; SKMEL-2, 48 Hr, DMSO 2.7) of the same compound?
A: 36.4%

Q: What about the TGI [7] of the same compound?
A: −6.4%

Q: What about the TGI ([8]; MLN8237 20 mg/kg PO QD for 21 days, p>0.05 vs control) of the same compound?
A: 43.4%

Q: What about the “TFS (tumor-free survivors)” value ([8]; MLN8237 20 mg/kg PO QD for 21 days) of the same compound?
A: 2

Q: And the “CR (complete tumor response)” value ([8]; MLN8237 20 mg/kg PO QD for 21 days, mice of 8)?
A: 2 of 8

Q: What about the TGI ([8]; MLN8237 30 mg/kg PO for 21 days, p<0.05 vs vehicle) of the same compound?
A: 73.3%

Q: And the “TFS (tumor-free survivors)” value ([8]; MLN8237 30 mg/kg PO for 21 days)?
A: 2

Q: What about the “CR (complete tumor response)” value [8, 9] of the same compound?
A: 4 of 8

Q: And the “PR (partial tumor response)” value [8, 9]?
A: 4 of 8
